According to patent US12606578B2, “Crystal form of spirocyclic amine aryl phosphorus oxide compound and preparation method therefor” (Qilu Pharmaceutical Co., LTD., priority 2022, dated 2026):
≈ marks a conversion by molar mass, not a printed value.

Assays:
[1] = Hydroscopicity experiment (DVS water sorption/desorption); assay type: physicochemical
Description: Description of hydroscopicity characteristics and definition of hygroscopic weight gain (Chinese Pharmacopoeia 2020 Edition, General Chapter 9103, Guidelines for Hydroscopicity Trials for Pharmaceuticals): • Deliquescence: absorb enough water to form liquid; • Extremely hygroscopic: the hygroscopic weight gain is not less than 15.0%; • Hygroscopic: hygroscopic weight gain is less than 15.0% but not less than 2.0%; • Mild hygroscopic: hygroscopic weight gain is less than 2.0% but not less than 0.2%; • Non-or almost non-hygroscopic: the hygroscopic weight gain is less than 0.2%.
The hydroscopicity of the samples was determined using a DVS Intrinsic dynamic vapor sorption analyzer. The samples were placed in a peeled sample basket, the instrument weighed automatically, and the samples were analyzed according to the parameters in Table 4.
According to “Guidelines for Hydroscopicity Trials for Pharmaceuticals” in Chinese Pharmacopoeia 2020 Edition, the data of water sorption/desorption of the crystal form Q4 of the compound of Formula (I) were tested.

[2] = Stability test under high temperature, high humidity and light (HPLC purity, XRPD); assay type: physicochemical; details: for Purity: HPLC; for Crystal form: XRPD
Protocol: Determination of HPLC is performed by Waters e2695 high performance liquid chromatograph to analyze the samples.
The stability of the crystal form Q4 of the compound of Formula (I) under high temperature, high humidity and light conditions was investigated. After placing for 5 days and 10 days under specific conditions, purity was tested by HPLC, and XRPD was performed.

[3] = Equilibrium solubility in four media with XRPD of the solids; assay type: physicochemical; details: for Solubility / Crystal transformation before and after the solubility test: 37° C.; for Solubility / solubility at 24 h: 200 rpm; for Solubility / Crystal transformation before and after the solubility test / solubility at 24 h: 24 h; for Crystal transformation before and after the solubility test: four media, XRPD; for solubility at 24 h: 37 °C, thermodynamic from solid
Protocol: At 37° C., appropriate amounts of the crystal form Q4 and crystal form A of the compound of Formula (I) were taken and dispersed in water, artificial gastric fluid (SGF, Simulated Gastric Fluid), artificial intestinal fluid under fed state (FeSSIF, Fed State Simulated Intestinal Fluid) and artificial intestinal fluid under fasted state (FaSSIF, Fasted State Simulated Intestinal Fluid) respectively to prepare suspension, and after equilibration at 200 rpm for 24 h, the content (mg/mL) of the sample in the solution were tested by HPLC and the samples in the solution were tested by XRPD, respectively.

[4] = Particle size analysis (PSA); assay type: physicochemical
Protocol: Malvern's laser scattering particle size distribution analyzer was used to analyze the particle size of solid powder. An appropriate amount of solid powder was taken into a sampler, the samples were tested according to the parameters listed in Table 5, and the data was analyzed by Mastersizer-v3.60.

[5] = Flow ability test (bulk density, tap density, Carr index); assay type: physicochemical
Protocol: The tap density was measured by SVM203 Tapped Density Meter.
Bulk density and tap density of bulk drugs with different crystal forms and particle sizes were tested, and Carr index was calculated.
Therefore, compared with the crystal form A, the crystal form Q4 has obvious advantages in terms of powder mixing uniformity of bulk drugs and the preparation of solid preparations.

[6] = disclosed in reference CN110407877, 90% RH; cited from earlier work
[7] = bulk drugs of substantially the same particle size used in flow ability test
[8] = bulk drug D90 69.2 μm (Q4), 62 μm (A)

## COc1cc(N2CCC3(CCN(C)CC3)CC2)ccc1Nc1ncc(Cl)c(Nc2ccccc2P(C)(C)=O)n1 [Crystal form Q4]
[1]; Chinese Pharmacopoeia 2020 criteria, weight gain at 80% RH
  Evaluation of hydroscopicity: non- or almost non-hygroscopic
[1]; DVS, 80% RH
  80% RH weight gain: 0.10%
[1]; DVS, 90% RH
  90% RH weight gain: 0.12%
[1]; before and after DVS test
  Crystal transformation, XRPD before and after DVS test: no crystal transformation before and after the test
[1]; hygroscopic weight gain comparison
  Hydroscopicity compared with the crystal forms A, B and C: less hydroscopicity than the crystal forms A, B and C
[2]; 40° C.-5 D
  Related substances: Impurity LG RRT = 1.98: 0.04%
  Related substances: Impurity LO RRT = 0.89: 0.01%
  Related substances: Impurity LP RRT = 1.16: 0.02%
  Related substances: Impurity QA RRT = 0.95: 0.01%
  Purity: 99.88%
  Crystal form: form Q4
[2]; 40° C.-10 D
  Related substances: Impurity LG RRT = 1.98: 0.04%
  Related substances: Impurity LO RRT = 0.89: 0.01%
  Related substances: Impurity LP RRT = 1.16: 0.03%
  Related substances: Impurity QA RRT = 0.95: 0.01%
  Purity: 99.87%
  Crystal form: form Q4
[2]; 60° C.-5 D
  Related substances: Impurity LG RRT = 1.98: 0.04%
  Related substances: Impurity LO RRT = 0.89: 0.01%
  Related substances: Impurity LP RRT = 1.16: 0.02%
  Related substances: Impurity QA RRT = 0.95: 0.01%
  Purity: 99.86%
  Crystal form: form Q4
[2]; 60° C.-10 D
  Related substances: Impurity LG RRT = 1.98: 0.04%
  Related substances: Impurity LO RRT = 0.89: 0.01%
  Related substances: Impurity LP RRT = 1.16: 0.02%
  Related substances: Impurity QA RRT = 0.95: 0.01%
  Purity: 99.88%
  Crystal form: form Q4
[2]; 75RH-5 D
  Related substances: Impurity LG RRT = 1.98: 0.04%
  Related substances: Impurity LO RRT = 0.89: 0.01%
  Related substances: Impurity LP RRT = 1.16: 0.01%
  Related substances: Impurity QA RRT = 0.95: 0.01%
  Purity: 99.88%
  Crystal form: form Q4
[2]; 75RH-10 D
  Related substances: Impurity LG RRT = 1.98: 0.04%
  Related substances: Impurity LO RRT = 0.89: 0.01%
  Related substances: Impurity LP RRT = 1.16: 0.02%
  Related substances: Impurity QA RRT = 0.95: 0.01%
  Purity: 99.88%
  Crystal form: form Q4
[2]; 90RH-5 D
  Related substances: Impurity LG RRT = 1.98: 0.04%
  Related substances: Impurity LO RRT = 0.89: 0.02%
  Related substances: Impurity LP RRT = 1.16: 0.01%
  Related substances: Impurity QA RRT = 0.95: 0.01%
  Purity: 99.87%
  Crystal form: form Q4
[2]; 90RH-10 D
  Related substances: Impurity LG RRT = 1.98: 0.04%
  Related substances: Impurity LO RRT = 0.89: 0.01%
  Related substances: Impurity LP RRT = 1.16: 0.03%
  Related substances: Impurity QA RRT = 0.95: 0.01%
  Purity: 99.83%
  Crystal form: form Q4
[2]; Light-5 D
  Related substances: Impurity LG RRT = 1.98: 0.04%
  Related substances: Impurity LO RRT = 0.89: 0.03%
  Related substances: Impurity LP RRT = 1.16: 0.02%
  Related substances: Impurity QA RRT = 0.95: 0.01%
  Purity: 99.82%
  Crystal form: form Q4
[2]; Light-10 D
  Related substances: Impurity LG RRT = 1.98: 0.03%
  Related substances: Impurity LO RRT = 0.89: 0.03%
  Related substances: Impurity LP RRT = 1.16: 0.02%
  Related substances: Impurity QA RRT = 0.95: 0.01%
  Purity: 99.86%
  Crystal form: form Q4
[2]; Start
  Related substances: Impurity LG RRT = 1.98: 0.03%
  Related substances: Impurity LO RRT = 0.89: 0.01%
  Related substances: Impurity LP RRT = 1.16: 0.02%
  Related substances: Impurity QA RRT = 0.95: 0.01%
  Purity: 99.90%
  Crystal form: form Q4
[2]; high temperature, high humidity and light conditions, 5 and 10 days
  Degradation / stability: no obvious degradation
[3]; FaSSIF
  Solubility compared with the crystal form A: better than that of the crystal form A
[3]; FaSSIF (pH 6.5)
  Solubility: 5750 µg/mL (≈ 10.1 mM)
[3]; FeSSIF (pH 5.0)
  Solubility: 23560 µg/mL (≈ 41.4 mM)
[3]; SGF (pH 1.8)
  Solubility: 9280 µg/mL (≈ 16.3 mM)
[3]; Water
  Solubility: 40 µg/mL (≈ 0.0703 mM)
[3]
  Crystal transformation before and after the solubility test: do not transform before and after the test
[4]; PSA, Example 3 batch
  D10: 10.8 μm
  D50: 62.6 μm
  D90: 145.2 μm
[4]; [7]
  Particle size of bulk D90: 69.2 μm
[4]; larger particle size Q4 bulk drug used in flow ability test
  Particle size of bulk D90: 145.2 μm
[5]; [8]
  Bulk density: 0.28 g/mL
  Carr index: (tap density-bulk density)/tap density: 24.32%
  Evaluation (flow ability): fair flow
  Tap density: 0.37 g/mL
[5]; bulk drug D90 145.2 μm
  Bulk density: 0.42 g/mL
  Carr index: (tap density-bulk density)/tap density: 17.65%
  Evaluation (flow ability): good or medium (16 to 20%)
  Tap density: 0.51 g/mL
[5]; substantially the same particle size
  Flow ability compared with the crystal form A: better flow ability compared with the crystal form A

## COc1cc(N2CCC3(CCN(C)CC3)CC2)ccc1Nc1ncc(Cl)c(Nc2ccccc2P(C)(C)=O)n1 [Crystal form C]
[6]
  Weight gain under 90% RH humidity condition: 0.62%

## COc1cc(N2CCC3(CCN(C)CC3)CC2)ccc1Nc1ncc(Cl)c(Nc2ccccc2P(C)(C)=O)n1 [Crystal form A, reference compound]
[3]; fasted state simulated intestinal fluid (FaSSIF), pH 6.5, fassif, FaSSIF (pH 6.5)
  solubility at 24 h: 4560 µg/mL (≈ 8.01 mM)
[3]; fed state simulated intestinal fluid (FeSSIF), pH 5, fessif, FeSSIF (pH 5.0)
  solubility at 24 h: 23600 µg/mL (≈ 41.5 mM)
[3]
  Crystal transformation before and after the solubility test: do not transform before and after the test
[3]; simulated gastric fluid (SGF), pH 1.8, simulated gastric fluid, SGF (pH 1.8)
  solubility at 24 h: 9300 µg/mL (≈ 16.3 mM)
[3]; water
  solubility at 24 h: 40 µg/mL (≈ 0.0703 mM)
[6]
  Weight gain under 90% RH humidity condition: 0.17%
[4]; [7]
  Particle size of bulk D90: 62 μm
[5]; [8]
  Bulk density: 0.48 g/mL
  Carr index: (tap density-bulk density)/tap density: 31.43%
  Evaluation (flow ability): poor flow
  Tap density: 0.70 g/mL

## COc1cc(N2CCC3(CCN(C)CC3)CC2)ccc1Nc1ncc(Cl)c(Nc2ccccc2P(C)(C)=O)n1 [Crystal form B]
[6]
  Weight gain under 90% RH humidity condition: 0.70%
